The nature of series [1]: non-haematological toxicity profile. Particulars: general statement, in contrast to busulfan.
Series [2] in a line: pharmacokinetic properties after intravenous administration.
Series [3] concerns donor-type chimerism in the recipient. Kind of series: H-2-compatible allogenic bone-marrow transplantation trial (C.B10→B6). The format is in vivo, mice. Particulars: substance alone, treosulfan in fractionated doses. Here is the method: Treosulfan administered in fractionated doses was also evaluated in an H-2-compatible allogenic bone-marrow transplantation trial (C.B10→B6). In this trial, an immunological reaction resulting in rejection of the transplant must be prevented by conditioning with e.g. treosulfan, before growth of the transplant is possible.

The next series can be described thus: water solubility. Format: physicochemical.
Series [4] deals with haematopoietic stem cells in the host bone marrow. Kind of series: cobblestone area forming cell assay (CAFC) on host bone marrow 24 hours after administration, murine bone-marrow transplantation model. Particulars: recipient mice (BG-Gpi-1b), 3×2500 mg/kg daily fractionation, CAFC 24 hours after administration. Format: in vivo. Here is the method:
The recipient mice (BG-Gpi-1^b) were treated with 3×2500 mg/kg or 7500 mg/kg (corresponding to 22.5 g/m^2) treosulfan or 50 mg/kg busulfan. 24 hours after administration the elimination of the different haematopoietic stem cells in the host bone marrow was ascertained using the in vitro cobblestone area forming cell assays (CAFC; cf. Ploemacher et al., Blood 78 (1991) 2527–2533).

Each structure is given as a SMILES string.

In the case of `CS(=O)(=O)OC[C@H](O)[C@@H](O)COS(C)(=O)=O` [treosulfan[…]], the “non-haematological toxicity (liver, kidney, CNS, lung)” value in series [1] was “no significant liver, kidney, CNS or lung toxicity”. In addition, the pharmacokinetic properties entry in series [2] was “reliable and linear pharmacokinetic properties”. Also, in series [3], the “induction of donor-type chimerism / conditioning before allogenic bone-marrow transplantation” value was “almost complete and stable donor-type chimerism”. In the series “water solubility”, the water-solubility result is reported as “consistent high water-solubility”. Also, the “elimination of both the primitive and the "committed" progenitor cells” value in series [4] was 3 to 5 powers of ten.

With `CS(=O)(=O)OCCCCOS(C)(=O)=O` [busulfan], the “induction of donor-type chimerism / conditioning before allogenic bone-marrow transplantation” value in series [3] was “unable to bring about effective conditioning”. Besides, the water-solubility entry in the series “water solubility” was “low solubility”.

Source of the values: US7199162B1, “Use of treosulfan for patient conditioning before bone marrow or blood stem cell transplantation” (Medac Gesellschaft fur Klinische Spezialpraparate mbH, priority 1999, dated 2007).
